Measurements from ChEMBL document CHEMBL5465560, “Selectivity Literature for EUbOPEN Chemogenomic Library” (2024).
Values belong to the molecule of their own block, whether it stands above or below them.

Assays:
[1] = biological target: T1, Bromodomain and PHD finger-containing protein 3 (Homo sapiens) (UniProt Q9ULD4); experiment: Selectivity interaction (Human bromodomain panel (DSF assay)) EUB0000233b BRPF3
T1 sequence (whole entry): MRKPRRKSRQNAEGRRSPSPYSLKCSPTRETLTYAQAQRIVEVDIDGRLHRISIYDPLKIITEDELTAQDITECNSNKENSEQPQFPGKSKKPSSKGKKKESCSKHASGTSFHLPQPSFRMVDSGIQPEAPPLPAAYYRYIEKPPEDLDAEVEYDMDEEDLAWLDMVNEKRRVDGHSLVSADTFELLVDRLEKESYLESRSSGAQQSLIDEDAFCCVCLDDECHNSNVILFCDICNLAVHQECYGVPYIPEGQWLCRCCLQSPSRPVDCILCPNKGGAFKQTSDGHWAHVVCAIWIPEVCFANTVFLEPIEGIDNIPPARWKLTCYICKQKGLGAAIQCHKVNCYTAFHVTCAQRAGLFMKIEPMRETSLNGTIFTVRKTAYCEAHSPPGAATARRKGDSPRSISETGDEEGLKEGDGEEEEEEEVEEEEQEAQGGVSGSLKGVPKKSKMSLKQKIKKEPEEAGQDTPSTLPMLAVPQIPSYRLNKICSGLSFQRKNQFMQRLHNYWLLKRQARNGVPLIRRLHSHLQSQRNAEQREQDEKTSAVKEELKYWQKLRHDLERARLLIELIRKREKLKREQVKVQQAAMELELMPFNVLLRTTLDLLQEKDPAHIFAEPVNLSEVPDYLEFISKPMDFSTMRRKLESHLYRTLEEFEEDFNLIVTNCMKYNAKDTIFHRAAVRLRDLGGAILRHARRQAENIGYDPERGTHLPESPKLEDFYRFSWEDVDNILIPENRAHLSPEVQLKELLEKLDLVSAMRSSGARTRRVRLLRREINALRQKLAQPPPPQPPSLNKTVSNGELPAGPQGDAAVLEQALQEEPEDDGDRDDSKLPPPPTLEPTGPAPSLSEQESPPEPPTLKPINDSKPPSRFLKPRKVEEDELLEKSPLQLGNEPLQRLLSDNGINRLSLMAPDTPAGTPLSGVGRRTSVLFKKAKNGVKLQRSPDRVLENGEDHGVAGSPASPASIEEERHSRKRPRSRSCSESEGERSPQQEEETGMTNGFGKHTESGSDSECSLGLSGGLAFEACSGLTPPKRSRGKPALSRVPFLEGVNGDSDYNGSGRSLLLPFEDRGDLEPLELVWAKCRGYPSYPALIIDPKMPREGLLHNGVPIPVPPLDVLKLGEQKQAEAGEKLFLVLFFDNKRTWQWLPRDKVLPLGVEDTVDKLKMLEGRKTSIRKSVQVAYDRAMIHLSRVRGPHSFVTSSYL

[2] = biological target: T2, Mitogen-activated protein kinase 15 (Homo sapiens) (UniProt Q8TD08); settings: at 10 µM
T2 sequence (whole entry): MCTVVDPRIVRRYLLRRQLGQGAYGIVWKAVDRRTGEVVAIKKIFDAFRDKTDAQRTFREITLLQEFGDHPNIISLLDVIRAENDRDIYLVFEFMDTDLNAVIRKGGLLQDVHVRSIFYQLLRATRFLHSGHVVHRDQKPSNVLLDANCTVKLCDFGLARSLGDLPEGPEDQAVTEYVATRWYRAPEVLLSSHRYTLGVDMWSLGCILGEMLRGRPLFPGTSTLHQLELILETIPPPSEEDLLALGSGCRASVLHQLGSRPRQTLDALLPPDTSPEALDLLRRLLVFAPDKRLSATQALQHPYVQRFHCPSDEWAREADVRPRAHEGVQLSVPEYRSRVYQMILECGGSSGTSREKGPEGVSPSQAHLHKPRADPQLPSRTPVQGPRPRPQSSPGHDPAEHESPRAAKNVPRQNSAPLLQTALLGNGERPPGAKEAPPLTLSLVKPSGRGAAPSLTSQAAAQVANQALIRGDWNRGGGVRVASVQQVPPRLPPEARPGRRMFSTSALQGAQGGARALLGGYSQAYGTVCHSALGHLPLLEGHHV

[3] = biological target: T3, Mitogen-activated protein kinase kinase kinase 6 (Homo sapiens) (UniProt O95382); experiment: Selectivity interaction (ActivX KiNativ screen (ex vivo kinase selectivity in human PBMCs)) EUB0001619a MAP3K6; type: cell-based; settings: PBMC, at 1 µM
T3 sequence (whole entry): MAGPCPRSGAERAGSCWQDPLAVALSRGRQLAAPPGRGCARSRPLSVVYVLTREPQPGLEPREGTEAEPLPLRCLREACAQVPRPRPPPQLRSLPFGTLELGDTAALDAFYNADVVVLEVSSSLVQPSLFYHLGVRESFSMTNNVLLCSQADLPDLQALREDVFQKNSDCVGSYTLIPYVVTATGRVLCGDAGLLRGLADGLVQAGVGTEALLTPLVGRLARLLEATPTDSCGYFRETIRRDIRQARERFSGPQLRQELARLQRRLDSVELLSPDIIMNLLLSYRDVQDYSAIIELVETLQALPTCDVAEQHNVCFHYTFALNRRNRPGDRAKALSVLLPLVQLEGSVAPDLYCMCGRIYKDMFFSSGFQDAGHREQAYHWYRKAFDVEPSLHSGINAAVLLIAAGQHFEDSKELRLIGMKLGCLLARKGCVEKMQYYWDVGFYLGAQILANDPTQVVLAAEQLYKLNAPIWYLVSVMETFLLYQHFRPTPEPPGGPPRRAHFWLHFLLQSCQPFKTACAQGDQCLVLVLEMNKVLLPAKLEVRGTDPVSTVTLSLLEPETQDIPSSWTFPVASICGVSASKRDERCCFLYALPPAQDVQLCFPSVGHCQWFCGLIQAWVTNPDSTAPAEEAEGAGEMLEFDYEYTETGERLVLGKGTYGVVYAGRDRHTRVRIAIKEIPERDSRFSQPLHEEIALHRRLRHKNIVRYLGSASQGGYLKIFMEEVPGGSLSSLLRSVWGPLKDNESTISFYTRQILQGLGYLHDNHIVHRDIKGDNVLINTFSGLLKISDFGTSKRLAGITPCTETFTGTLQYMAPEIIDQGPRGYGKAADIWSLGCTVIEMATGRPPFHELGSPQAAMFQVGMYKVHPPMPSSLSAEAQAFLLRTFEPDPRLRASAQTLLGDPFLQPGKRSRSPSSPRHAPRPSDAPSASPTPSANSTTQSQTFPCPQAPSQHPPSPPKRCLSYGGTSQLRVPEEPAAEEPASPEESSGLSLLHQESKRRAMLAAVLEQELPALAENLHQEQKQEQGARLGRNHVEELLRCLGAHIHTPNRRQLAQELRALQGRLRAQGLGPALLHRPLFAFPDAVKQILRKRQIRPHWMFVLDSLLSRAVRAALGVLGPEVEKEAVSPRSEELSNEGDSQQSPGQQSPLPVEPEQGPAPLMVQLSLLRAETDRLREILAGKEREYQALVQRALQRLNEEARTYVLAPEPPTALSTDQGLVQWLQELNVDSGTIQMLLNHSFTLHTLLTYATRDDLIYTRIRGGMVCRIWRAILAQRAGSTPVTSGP

dTM [1]: < 2 K
SMILES: CN(C)CCCOc1ccc(-c2cc(NCCCn3cccn3)nc(S(C)(=O)=O)n2)cc1

SMILES: Cc1cc([C@@H](C)Nc2ccccc2C(=O)O)c2nc(N3CCOCC3)cc(=O)n2c1 [AZD-6482]
% of control [2]: 100%

SMILES: N#Cc1cccc(-c2c[nH]c3ncnc(N4CCOCC4)c23)c1
% of inhibition [3]: 21%
